Measurements as given in ChEMBL document CHEMBL5058564, “EUbOPEN Chemogenomics Library 2 (Incucyte)” (2022).
Several values for one entry are separate records, joined by “and”; a condition that tells them apart may be missing. Equal entries are not always repeated.

Columns and labels:
Format in all cases: toxicity, cell-based
HEK-293T = assay: Incucyte cell viability with HEK293T; conditions: human, 10 µM, compound concentration 10 uM
U2OS = assay: Incucyte cell viability with U2OS; conditions: human, 10 µM, compound concentration 10 uM
Fibroblast = assay: Incucyte cell viability with human fibroblast; conditions: 10 µM, compound concentration 10 uM
[1] = 0 h, replicate number 1, timepoint 0 hours
[2] = 0 h, replicate number 2, timepoint 0 hours
[3] = 6 h, replicate number 1, timepoint 6 hours
[4] = 6 h, replicate number 2, timepoint 6 hours
[5] = 12 h, replicate number 1, timepoint 12 hours
[6] = 12 h, replicate number 2, timepoint 12 hours
[7] = 18 h, replicate number 1, timepoint 18 hours
[8] = 18 h, replicate number 2, timepoint 18 hours
[9] = 24 h, replicate number 1, timepoint 24 hours
[10] = 24 h, replicate number 2, timepoint 24 hours
Further: unitless GR value; below 1 slowed growth and below 0 cell loss.

COc1ccc(-n2c(C)c([N+](=O)[O-])c3ccc(O)cc32)cc1
Growth Rate (HEK-293T; [1]): 0.39
Growth Rate (U2OS; [2]): -1
Growth Rate (U2OS; [3]): -0.36
Growth Rate (U2OS; [4]): 0.75
Growth Rate (U2OS; [5]): 0.46
Growth Rate (U2OS; [6]): 0.73
Growth Rate (U2OS; [7]): 0.7
Growth Rate (U2OS; [8]): 0.71
Growth Rate (U2OS; [9]): 0.63
Growth Rate (U2OS; [10]): 0.67
Growth Rate (Fibroblast; [4]): 0.98
Growth Rate (Fibroblast; [8]): 0.87
Growth Rate (Fibroblast; [10]): 0.5

Cc1ccccc1N1CCN(CCc2nnc3n2CCCC3)CC1.Cl [DAPIPRAZOLE HYDROCHLORIDE]
Growth Rate (HEK-293T; [2]): -0.18
Growth Rate (HEK-293T; [3]): 0.83
Growth Rate (HEK-293T; [7]): 0.93
Growth Rate (HEK-293T; [9]): 0.96
Growth Rate (U2OS; [1]): 0.33
Growth Rate (U2OS; [3]): 0.94
Growth Rate (U2OS; [5]): 0.78
Growth Rate (Fibroblast; [1]): -0.42
Growth Rate (Fibroblast; [2]): 0.16
Growth Rate (Fibroblast; [4]): 0.85
Growth Rate (Fibroblast; [5]): 0.81
Growth Rate (Fibroblast; [9]): 0.68

CCCN1CCC[C@@H]2Cc3n[nH]cc3C[C@H]21.Cl [QUINPIROLE HYDROCHLORIDE]
Growth Rate (HEK-293T; [2]): 0.26
Growth Rate (HEK-293T; [3]): 0.41
Growth Rate (U2OS; [3]): -0.04
Growth Rate (U2OS; [4]): 0.9
Growth Rate (U2OS; [6]): 0.66
Growth Rate (U2OS; [7]): 0.9
Growth Rate (U2OS; [8]): 0.96
Growth Rate (U2OS; [9]): 0.88
Growth Rate (U2OS; [10]): 0.96
Growth Rate (Fibroblast; [1]): -0.18
Growth Rate (Fibroblast; [2]): 0.29
Growth Rate (Fibroblast; [3]): 0.59
Growth Rate (Fibroblast; [5]): 0.29
Growth Rate (Fibroblast; [7]): 0.54

Oc1c(CN2CCN(c3ccccn3)CC2)cc(Cl)c2cccnc12
Growth Rate (HEK-293T; [2]): -1
Growth Rate (HEK-293T; [3]): -0.48
Growth Rate (HEK-293T; [5]): -0.03
Growth Rate (HEK-293T; [7]): 0.11
Growth Rate (HEK-293T; [9]): 0.17
Growth Rate (U2OS; [1]): 0.03
Growth Rate (U2OS; [2]): -0.6
Growth Rate (U2OS; [3]): 0.19
Growth Rate (U2OS; [4]): -0.14
Growth Rate (U2OS; [5]): 0.01
Growth Rate (U2OS; [6]): 0.21
Growth Rate (U2OS; [7]): -0.04
Growth Rate (U2OS; [8]): 0.1
Growth Rate (U2OS; [9]): -0.07
Growth Rate (U2OS; [10]): 0.08
Growth Rate (Fibroblast; [9]): 0.65
Growth Rate (Fibroblast; [10]): 0.89

COc1cc(Nc2nc(C)cc(-c3cnn4nc(OC)ccc34)n2)cc(C(F)(F)F)c1
Growth Rate (HEK-293T; [1]): 0.76
Growth Rate (HEK-293T; [4]): 0.89
Growth Rate (HEK-293T; [6]): 0.84
Growth Rate (HEK-293T; [8]): 0.94
Growth Rate (HEK-293T; [10]): 0.85
Growth Rate (U2OS; [1]): 0.11
Growth Rate (U2OS; [2]): 0.84
Growth Rate (U2OS; [3]): 0.24
Growth Rate (U2OS; [4]): 0.89 and 0.77
Growth Rate (U2OS; [5]): 0.61 and 0.48
Growth Rate (U2OS; [6]): 1 and 0.46
Growth Rate (U2OS; [7]): 0.85 and 0.45
Growth Rate (U2OS; [8]): 0.62 and 0.36
Growth Rate (U2OS; [9]): 0.62 and 0.35
Growth Rate (U2OS; [10]): 0.76 and 0.27
Growth Rate (Fibroblast; [8]): 0.67 and 0.25
Growth Rate (Fibroblast; [10]): 0.58 and 0.24

COc1cc2nc(N3CCN(C(=O)COc4c(OC)cccc4C(C)C)CC3)nc(N)c2cc1OC.Cl.Cl
Growth Rate (HEK-293T; [2]): 0.59
Growth Rate (HEK-293T; [3]): -0.28
Growth Rate (HEK-293T; [4]): 0.9
Growth Rate (HEK-293T; [5]): -0.06
Growth Rate (HEK-293T; [6]): 0.66
Growth Rate (HEK-293T; [7]): 0.21
Growth Rate (HEK-293T; [8]): 0.61
Growth Rate (HEK-293T; [9]): 0.39
Growth Rate (HEK-293T; [10]): 0.84
Growth Rate (U2OS; [2]): -1
Growth Rate (U2OS; [5]): 0.56
Growth Rate (Fibroblast; [2]): 0.71
Growth Rate (Fibroblast; [3]): -0.72
Growth Rate (Fibroblast; [4]): -0.55
Growth Rate (Fibroblast; [5]): -0.84
Growth Rate (Fibroblast; [6]): -0.41
Growth Rate (Fibroblast; [7]): -0.75
Growth Rate (Fibroblast; [8]): -0.48
Growth Rate (Fibroblast; [9]): -0.65
Growth Rate (Fibroblast; [10]): -0.39

CCNC(=O)[C@H]1O[C@@H](n2cnc3c(N)nc(NCCc4ccc(CCC(=O)O)cc4)nc32)[C@H](O)[C@@H]1O.Cl
Growth Rate (HEK-293T; [1]): 0.05
Growth Rate (HEK-293T; [2]): 0.1
Growth Rate (HEK-293T; [3]): 0.95
Growth Rate (U2OS; [1]): -0.07
Growth Rate (U2OS; [3]): 0
Growth Rate (U2OS; [4]): 0.99
Growth Rate (U2OS; [5]): 0.64
Growth Rate (U2OS; [7]): 0.96
Growth Rate (U2OS; [10]): 0.97
Growth Rate (Fibroblast; [2]): 0.98
Growth Rate (Fibroblast; [3]): 0.96
Growth Rate (Fibroblast; [4]): 0.47
Growth Rate (Fibroblast; [6]): 0.63

Cc1cc(C)cc(C(=O)NOCCCCCC(=O)NO)c1
Growth Rate (HEK-293T; [2]): 0.38
Growth Rate (HEK-293T; [5]): 0.54
Growth Rate (HEK-293T; [6]): 0.67
Growth Rate (HEK-293T; [7]): 0.24
Growth Rate (HEK-293T; [8]): 0.37
Growth Rate (HEK-293T; [9]): 0.15
Growth Rate (HEK-293T; [10]): 0.32
Growth Rate (U2OS; [1]): 0.03
Growth Rate (U2OS; [2]): -0.5
Growth Rate (U2OS; [3]): 0.82
Growth Rate (U2OS; [4]): 0.51
Growth Rate (U2OS; [5]): 0.43
Growth Rate (U2OS; [6]): 0.5
Growth Rate (U2OS; [7]): 0.34
Growth Rate (U2OS; [8]): 0.4
Growth Rate (U2OS; [9]): 0.37
Growth Rate (U2OS; [10]): 0.36
Growth Rate (Fibroblast; [1]): -0.03
Growth Rate (Fibroblast; [2]): 0.7
Growth Rate (Fibroblast; [5]): 0.99
Growth Rate (Fibroblast; [9]): 0.77

CN1CCN(c2nc3cc(C(F)(F)F)ccc3n3cccc23)CC1.O=C(O)/C=C\C(=O)O.O=C(O)/C=C\C(=O)O
Growth Rate (HEK-293T; [3]): 0.89
Growth Rate (HEK-293T; [4]): 0.57
Growth Rate (HEK-293T; [6]): 0.87
Growth Rate (HEK-293T; [8]): 0.7
Growth Rate (HEK-293T; [9]): 0.8
Growth Rate (U2OS; [2]): -1
Growth Rate (Fibroblast; [1]): 0.87
Growth Rate (Fibroblast; [3]): 0.24
Growth Rate (Fibroblast; [5]): 0.72
Growth Rate (Fibroblast; [7]): 0.98

C(#Cc1cccc(CN2CCOCC2)c1)CCN1CCCCC1
Growth Rate (HEK-293T; [1]): 0.61
Growth Rate (HEK-293T; [2]): 0.63
Growth Rate (HEK-293T; [5]): 0.91
Growth Rate (HEK-293T; [7]): 0.78
Growth Rate (HEK-293T; [9]): 0.73
Growth Rate (U2OS; [1]): 0.35
Growth Rate (U2OS; [2]): -1
Growth Rate (Fibroblast; [3]): 0.03
Growth Rate (Fibroblast; [4]): 0.09
Growth Rate (Fibroblast; [5]): 0.14
Growth Rate (Fibroblast; [6]): 0.09
Growth Rate (Fibroblast; [7]): 0.39
Growth Rate (Fibroblast; [8]): 0.23
Growth Rate (Fibroblast; [9]): 0.28
Growth Rate (Fibroblast; [10]): 0.26

CCCCC[C@H](O)/C=C/[C@H]1[C@H](O)CC(=O)[C@@H]1CCCCCCC(=O)O [ALPROSTADIL]
Growth Rate (HEK-293T; [1]): -0.15
Growth Rate (HEK-293T; [2]): -0.14
Growth Rate (HEK-293T; [3]): 0.92
Growth Rate (HEK-293T; [6]): 1
Growth Rate (HEK-293T; [8]): 0.94
Growth Rate (U2OS; [1]): 0.29
Growth Rate (U2OS; [2]): -1
Growth Rate (U2OS; [3]): -0.08
Growth Rate (U2OS; [4]): 0.85
Growth Rate (U2OS; [5]): 0.28
Growth Rate (U2OS; [6]): 0.88
Growth Rate (U2OS; [7]): 0.53
Growth Rate (U2OS; [8]): 0.83
Growth Rate (U2OS; [9]): 0.85
Growth Rate (U2OS; [10]): 0.97
Growth Rate (Fibroblast; [1]): -0.23
Growth Rate (Fibroblast; [2]): 0.17
